Experiments:
HIV-I, GB8 = assay: Ability to prevent syncytia formation and expression of P24 viral core antigen using JM cells and GB8 virus strain (Example I); type: cell-based; settings: for P24 % CONTROL: 4320 min
Procedure: The virus was first incubated with an oligomer for 15 minutes and then the cells were added. After 2 hours adsorption, the virus innoculum was removed and the cells were washed three times to remove traces of input virus. Antiviral activity was determined after 3 days incubation by plotting the mean number of syncytia found in quadruple cultures against log10 concentration of anionic polymer or of other test compounds. The potency of an oligomer was also measured by assaying viral core antigen (P24 test-Abbott) in the supernatant fluid. Heparin, dextran sulfate, rs CD4, ATZ and/or ddC data, when included in any of the following Tables, are provided as positive controls.

HIV strain RF = assay: Ability to prevent virus-induced cell death using MT4 cells and strain RF (Example III); type: cell-based; settings: MT4 cells, 7 days, MTT
Procedure, shortened: (§1)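 MT4 cells (5×10^4/well) plus 100 TCID50 HIV RF added to doubling dilutions of oligomers in RPMI, incubated 7 days at 37° C. Viability by MTT, 2 h further incubation, formazan dissolved in acidic isopropanol, absorbance at 540 nm.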

MT4 cells = assay: Toxicity to MT4 cells (TD50, Table IV, MTT); type: cell-based; settings: human, mt4 cells, 168 h
Procedure, shortened: as §1

[1] = tested on: viral protein which is responsible for cell recognition; settings: cited from earlier work
[2] = in vivo; cited from earlier work
HIV-I (GB8) = assay: Pretreatment of JM cells and block of HIV-I (GB8) infection (Example IV); settings: pretreated overnight at 20 μg/mL
Procedure: JM cells were pretreated overnight at 37° C. with different compounds at 20 μg/mL or left untreated. The cells were washed 3 times in RPMI medium and then infected with HIV-I (GB8) for 2 hours at room temperature. The cells were again washed 3 times in RPMI medium and resuspended in fresh medium prior to being distributed into duplicate wells and incubated at 37° C. After 2 days syncytia were scored and the cell free supernatant fluid harvested and assayed for P24 viral core antigen using the Coulter™ HIV antigen assay.

GB8 virus in JM cells = assay: Virus infection of JM cells with GB8 in the presence of test compounds: syncytia and P24 (Example II); settings: for SYNCYTIA % / P24 %: % of control; for SYNCYTIA %: 2880 min; for P24 %: 5760 min
Procedure: Virus infection of JM cells was carried out in the presence of different concentrations of test compounds. JM cells (1×10^5) and 50-100 syncytial forming units of virus (GB8) were added to duplicate wells of a tissue culture plate containing 1 mL volumes of growth medium with or without drug. The plate was incubated for 2 days at 37° C. and then scored for the presence of syncytia. At the same time the cells were washed and the growth medium replaced. After a further two days incubation, the cell free supernatant fluids were harvested and assayed for levels of P24 viral core antigen using the Coulter™ HIV Antigen assay.

## Heparin [reference compound]
HIV-I, GB8; 0.6 μg/mL
  P24: 44570 pg/mL
  P24 % CONTROL: 0.1%
HIV-I, GB8; 2.5 μg/mL
  P24: 25775 pg/mL
  P24 % CONTROL: < 0.1%
HIV-I, GB8; 5.0 μg/mL
  P24: 2500 pg/mL
  P24 % CONTROL: < 0.1%
HIV-I, GB8; 5.0 μg/mL, after 3 days
  SYNCYTIA: 0
HIV strain RF
  ED50: 4.6 µg/mL
MT4 cells
  TD50: > 100 µg/mL
[1]
  inhibition of host cell infection: limited inhibition of host cell infection
[2]
  side effects: hemorrhage and increased clot formation time as well as thrombocytopenia
HIV-I (GB8)
  P24: 29090 pg/mL
HIV-I (GB8); 2 days
  MEAN SYNCYTIA: 136
HIV-I (GB8); % of control, 2880 min
  P24 %: 103%
  SYNCYTIA %: 114%
GB8 virus in JM cells; Table II, 0.01 μg/mL
  SYNCYTIA (2 DAYS) MEAN: 38
  SYNCYTIA %: 90%
GB8 virus in JM cells; Table II, 0.03 μg/mL
  SYNCYTIA (2 DAYS) MEAN: 29
  SYNCYTIA %: 69%
GB8 virus in JM cells; Table II, 0.1 μg/mL
  SYNCYTIA (2 DAYS) MEAN: 24
  SYNCYTIA %: 57%
GB8 virus in JM cells; Table II, 0.3 μg/mL
  P24: 4.1 × 10^4 units/mL
  SYNCYTIA (2 DAYS) MEAN: 22
  SYNCYTIA %: 52%
  P24 %: 11%
GB8 virus in JM cells; Table II, 1 μg/mL
  SYNCYTIA (2 DAYS) MEAN: 2
  SYNCYTIA %: 5%
  P24 %: 8%
GB8 virus in JM cells; Table II, 3 μg/mL
  P24: 1.7 × 10^4 units/mL
  SYNCYTIA (2 DAYS) MEAN: 0
  SYNCYTIA %: 0%
  P24 %: 5%
GB8 virus in JM cells; Table II, 10 μg/mL
  SYNCYTIA (2 DAYS) MEAN: 0
  SYNCYTIA %: 0%
  P24 %: 3%
GB8 virus in JM cells; Table III, 1 μg/mL
  P24: 211000 pg/mL
  SYNCYTIA MEAN: 13
  SYNCYTIA %: 19%
  P24 %: 63%
GB8 virus in JM cells; Table III, 10 μg/mL
  P24: 70700 pg/mL
  SYNCYTIA MEAN: 0
  P24 %: 21%
GB8 virus in JM cells; Table III, 100 μg/mL
  P24: 989 pg/mL
  SYNCYTIA MEAN: 0
  P24 %: 0.3%
